The structures appear in SMILES notation.

Assay [1] has as its system NQO1 specific enzyme activity in BEAS-2B cells (marker for NRF2 activation). As to the kind of experiment: Beas2B NQO1 MTT Assay. Type of assay: cell-based. The conditions noted are these: Homo sapiens, NQO1 specific activity induction, 48 hours with compound. From the text:
NAD(P)H:quinone oxidoreductase 1 (NQO1), also called DT diaphorase, is a homodimeric FAD-containing enzyme that catalyses obligatory NAD(P)H-dependent two-electron reductions of quinones and protects cells against the toxic and neoplastic effects of free radicals and reactive oxygen species arising from one-electron reductions. The transcription of NQO1 is finely regulated by NRF2, and thus NQO1 activity is a good marker for NRF2 activation. On day one, frozen BEAS-2B cells (ATCC) were thawed in a water bath, counted, and re-suspended at a concentration of 250,000 cells/mL. Fifty microliters of cells were plated in 384 well black clear-bottomed plates. Plates were incubated at 37° C., 5% CO2 overnight. On day two, plates were centrifuged and 50 nL of compound or controls were added to the cells. Plates were then incubated at 37° C., 5% CO2 for 48 hours. On day four, medium was aspirated from the plate and crude cell lysates were made by adding 13 uL of 1× Cell Signaling Technologies lysis buffer with 1 Complete, Mini, EDTA-free Protease Inhibitor Tablet (Roche) for each 10 mL of lysis buffer. After lysis plates were incubated for 20 minutes at room temperature. Two microliters of lysate were removed for use in Cell Titer Glo assay (Promega) and MTT cocktail was prepared (Prochaska et. al. 1998) for measurement of NQO1 activity. Fifty microliters of MTT cocktail was added to each well, plate was centrifuged, and analysed on an Envision plate reader (Perkin Elmer) using Absorbance 570 nm label for 30 minutes. Product formation was measured kinetically and the pEC50 of NQO1 specific activity induction was calculated by plotting the change in absorbance (Delta OD/min) versus the log of compound concentration followed by 3-parameter fitting.
EC50s <1 nM (+++++), EC50s 10 nM-1 nM (++++), EC50s 10-100 nM (+++), EC50s 100 nM-1 μM (++), EC50s 1-10 μM (+), EC50s >10 μM (−), or were not determined (ND).

Assay [2] addresses T1, full length NRF2 protein and full length Keap1 protein (Homo sapiens, UniProt Q14145).
T1 construct: full length NRF2 protein and full length Keap1 protein; His
Put plainly: NRF2-Keap1 TR-FRET Low Protein Assay. Type of assay: binding. The conditions noted are these: Keap1 FlagHis, biotin-NRF2. An excerpt: NRF2-Keap1 TR-FRET Low Protein Assay In the NRF2-Keap1 TR-FRET (time-resolved fluorescence resonance energy transfer) low protein assay, full length NRF2 protein and full length Keap1 protein (Keap1 exists a dimer) are used. The assay detects a compound's ability to displace the binding of Keap1 FlagHis with biotinylated Avi-NRF2 protein. Biotin-NRF2 binds to streptavidin-europium (a component of the detection mix) and Keap1 FlagHis is recognized by anti-Flag APC (allophycocyanin) antibody (also a component of the detection mix). If binding occurs between the two proteins, there will be an energy transfer from the Eu+3 (donor) at 615 nm to the APC (acceptor) at 665 nm. A potential NRF2 inhibitor will cause a reduction in the TR-FRET signal by interfering with the binding of Keap1 to NRF2.
Ten nanoliters of 100× compound dose response curves (serial 3-fold dilutions) in DMSO were stamped using an Echo liquid handling system (Labcyte) into 384-well, low volume, black assay plates (Greiner, #784076), with DMSO in columns 6 and 18. An additional 90 nl DMSO was added to each well, to bring the total volume to 100 nl per well. The top concentration of compound was located in columns 1 and 13, with the serial dilutions going across the row. All reagents were diluted in assay buffer (50 mM Tris, pH 8.0, 5 mM MgCl2, 100 mM NaCl, 0.005% BSA, 1 mM DTT, and 2 mM CHAPS. The BSA, DTT, and CHAPS were added to the assay buffer on the day of assay. Using a Multidrop Combi (Thermo Electron Corporation) equipped with a metal tip dispenser, 5 ul of 1.25 nM Keap1 FlagHis protein was added to all wells of the compound plate, with the exception of the wells in column 18. Wells in column 18 received 5 ul of assay buffer instead. Plates were centrifuged at 500 rpm for 1 minute, covered with a plate lid, and incubated at 37° C. for 2.25 hours. Plates were then removed from the incubator and allowed to cool to RT for 15 minutes. Five microliters of 2.5 nM biotin-NRF2 protein was then added to all wells of the plates and the plates were spun at 500 rpm for 1 minute, followed by incubating at 4° C. for 1.25 hours. The plates were then allowed to warm to RT for 15 minutes, followed by the addition of 10 ul of detection mix (1 nM Streptavidin Eu+ W1024 and 5 ug/ml mouse anti-DYKDDDDK IgG conjugated to SureLight APC antibody; both from Columbia Biosciences) to all wells. Plates were spun at 500 rpm for 1 minute, incubated for 1 hour at RT, and read on an Envision plate reader using a 320 nm excitation filter and 615 nm and 665 nm emission filters. Compound response (% inhibition) and potency (pIC50) were calculated based on the ratio of the two emissions (665 nm/615 nm) and then the transformed data is normalized against controls in the assay (control 1=1% DMSO in the presence of NRF2 and Keap1 protein and control 2=1% DMSO in the presence of only the NRF2 protein). Data analysis was handled using the software package Abase XE (Surrey, United Kingdom). The % inhibition values were calculated from the ratio (transformed) data by the equation:
100−(100*(compound response−average control 2)/(average control 1−average control2)).
For calculation of pIC50s, Abase XE used a four-parameter equation.
IC50s<10 nM (+++++), IC50s 10-100 nM (++++), IC50s 100 nM-1 uM (+++), IC50s 1-10 uM (++). & IC50s 10 uM-100 uM (+), IC50s >100 uM (−), or were not determined (ND).

T1 sequence (Q14145 whole entry): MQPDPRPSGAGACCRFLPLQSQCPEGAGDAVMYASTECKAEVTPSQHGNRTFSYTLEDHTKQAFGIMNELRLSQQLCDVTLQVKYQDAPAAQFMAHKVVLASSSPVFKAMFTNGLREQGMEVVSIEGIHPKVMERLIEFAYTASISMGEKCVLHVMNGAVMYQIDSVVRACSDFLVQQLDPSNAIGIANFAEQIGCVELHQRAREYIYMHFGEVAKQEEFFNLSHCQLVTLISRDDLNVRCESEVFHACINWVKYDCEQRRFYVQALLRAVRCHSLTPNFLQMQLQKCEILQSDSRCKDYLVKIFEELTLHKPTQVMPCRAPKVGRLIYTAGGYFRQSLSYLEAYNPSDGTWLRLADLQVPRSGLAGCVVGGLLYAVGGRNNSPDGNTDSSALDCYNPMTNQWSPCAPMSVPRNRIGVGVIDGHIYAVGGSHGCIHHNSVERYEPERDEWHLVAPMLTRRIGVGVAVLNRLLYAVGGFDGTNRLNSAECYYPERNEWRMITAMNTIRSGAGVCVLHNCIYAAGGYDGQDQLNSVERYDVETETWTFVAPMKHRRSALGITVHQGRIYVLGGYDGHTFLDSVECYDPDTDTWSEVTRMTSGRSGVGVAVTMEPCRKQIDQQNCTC

`C[C@H]1Cc2ccc(C(F)(F)F)cc2S(=O)(=O)N(C2CCc3c2cccc3-n2ccc(C(=O)O)c2C2CC2)C1` (mixture of isomers) [Example 12, 2-Cyclopropyl-1-(1-((S)-4-methyl-1,1-dioxido-8-(trifluoromethyl)-4,5-dihydrobenzo[f][1,2]thiazepin-2(3H)-yl)-2,3-dihydro-1H-inden-4-yl)-1H-pyrrole-3-carboxylic acid]: the EC50 in assay [1] was 100 to 1000 nM; in assay [2] it was 10000 to 100000 nM.

With `C[C@H]1Cc2ccc(C(F)(F)F)cc2S(=O)(=O)N(Cc2cccc(-n3ccc(C(=O)O)c3[C@@H]3C[C@H]3c3cn(C)nn3)c2)C1` (racemic) [Example 1, 1-(3-(((S)-4-Methyl-1,1-dioxido-8-(trifluoromethyl)-4,5-dihydrobenzo[f]-[1,2]thiazepin-2(3H)-yl)methyl)phenyl)-2-(trans-2-(1-methyl-1H-1,2,3-triazol-4-yl)cyclopropyl)-1H-pyrrole-3-carboxylic acid], the EC50 in assay [1] and in assay [2] was 10 to 100 nM throughout.

For the compound `C[C@H]1Cc2cc(C(F)(F)F)ccc2S(=O)(=O)N(Cc2cccc(-n3ccc(C(=O)O)c3[C@@H]3C[C@H]3c3cn(C)nn3)c2)C1` (racemic) [Example 2, 1-(3-(((S)-4-methyl-1,1-dioxido-7-(trifluoromethyl)-4,5-dihydrobenzo[f][1,2]thiazepin-2(3H)-yl)methyl)phenyl)-2-(trans-2-(1-methyl-1H-1,2,3-triazol-4-yl)cyclopropyl)-1H-pyrrole-3-carboxylic acid], the half-maximal effective concentration (EC50) in assay [1] and in assay [2] was 10 to 100 nM each time.

Take `Cc1c(CN2C[C@@H](C)Cc3ccc(C(F)(F)F)cc3S2(=O)=O)cccc1-n1ccc(C(=O)O)c1[C@@H]1C[C@H]1c1cn(C)nn1` (racemic) [Example 10, rac-2-(trans-2-(1-methyl-1H-1,2,3-triazol-4-yl)cyclopropyl)-1-(2-methyl-3-(((S)-4-methyl-1,1-dioxido-8-(trifluoromethyl)-4,5-dihydrobenzo[f][1,2]thiazepin-2(3H)-yl)methyl)phenyl)-1H-pyrrole-3-carboxylic acid]: the concentration giving a half-maximal response (EC50) in assay [1] and in assay [2] was 100 to 1000 nM in each case.

Consider `Cc1ccc(CN2C[C@@H](C)Cc3ccc(C(F)(F)F)cc3S2(=O)=O)cc1-n1ccc(C(=O)O)c1[C@@H]1C[C@H]1c1cn(C)nn1` (racemic) [Example 11, rac-2-(trans-2-(1-methyl-1H-1,2,3-triazol-4-yl)cyclopropyl)-1-(2-methyl-5-(((S)-4-methyl-1,1-dioxido-8-(trifluoromethyl)-4,5-dihydrobenzo[f][1,2]thiazepin-2(3H)-yl)methyl)phenyl)-1H-pyrrole-3-carboxylic acid], for which the half-maximal effective concentration (EC50) lay in the range of 100 to 1000 nM in assay [1] and 1000 to 10000 nM in assay [2].

With `C[C@H](Oc1cccc(-c2cccc(-n3ccc(C(=O)O)c3[C@@H]3C[C@H]3c3cn(C)nn3)c2)c1)C1CCCCC1` (racemic) [Example 13, 1-(3′-((S)-1-Cyclohexylethoxy)-[1,1′-biphenyl]-3-yl)-2-(trans-2-(1-methyl-1H-1,2,3-triazol-4-yl)cyclopropyl)-1H-pyrrole-3-carboxylic acid], the EC50 in assay [1] fell in the range of 10 to 100 nM; in assay [2], 100 to 1000 nM.

Consider `CCC[C@@H]1CCCCN1C(=O)c1cccc(-c2cccc(-n3ccc(C(=O)O)c3[C@@H]3C[C@H]3c3cn(C)nn3)c2)c1` (racemic) [Example 14, 2-(trans-2-(1-methyl-1H-1,2,3-triazol-4-yl)cyclopropyl)-1-(3′-((R)-2-propylpiperidine-1-carbonyl)-[1,1′-biphenyl]-3-yl)-1H-pyrrole-3-carboxylic acid], for which the EC50 in assay [1] and in assay [2] was 10 to 100 nM throughout.

With `CCC[C@@H]1CCCCN1C(=O)c1cccc(-c2cccc(-n3ccc(C(=O)O)c3[C@@H]3C[C@H]3c3cn(C)nn3)c2)c1F` (racemic) [Example 15, 1-(2′-fluoro-3′-((R)-2-propylpiperidine-1-carbonyl)-[1,1′-biphenyl]-3-yl)-2-(trans-2-(1-methyl-1H-1,2,3-triazol-4-yl)cyclopropyl)-1H-pyrrole-3-carboxylic acid], the EC50 in assay [1] is 1 to 10 nM; in assay [2], 10 to 100 nM.

The values above are taken from patent US20200031820A1, “3-CARBOXYLIC ACID PYRROLES AS NRF2 REGULATORS” (GLSXOSMITHKLINE INTELLECTUAL PROPERTY DEVELOPMENT LIMITED, priority 2016, published 2020).
